Patent publication US20250312323A1 (Cavion, Inc., priority 2018, published 2025)

Key:
Type in all cases: in vivo, human
[1] = Pharmacokinetics of CX-8998 immediate release capsules in healthy volunteers (Studies PN001, PN002); conditions: 2-18 mg dose range
[2] = test system: patients with essential tremor; assay: T-CALM: Patient Global Impression of Change (PGIC); conditions: for PGIC score (rescaled −3 to 3), LS mean (SE): ANCOVA
Description: Treatment success as measured by PGIC was summarized using descriptive statistics.
The Patient Global Impression of Change (PGIC) will quantify a patient's impression of improvement or decline over time with respect to ET treatment (see, e.g., Guy, Assessment Mantal for Psychopharmacology. Rockville, MD: Department of Health, Education, and Welfare Public Health Service Alcohol, Drug Abuse, and Mental Health Administration, 1976). The patient will use the PGIC scale to assess current health status versus initiation of treatment and calculate the difference.

[3] = test system: patients with essential tremor; assay: T-CALM: PK/PD, Cmin exposure vs change in TETRAS-PS (Hill equation); conditions: steady state, estimated
Description: Evaluation of the relationship between the Cmin exposure level of CX-8998 and response (E) as measured by change from baseline in TETRAS-PS using the Hill Equation: […]
Pharmacodynamic variables (Response) evaluated included change from baseline in TETRAS performance subscale, TETRAS activities of daily living, TETRAS total score.

[4] = test system: patients with essential tremor; assay: T-CALM: Kinesia ONE accelerometry score
Description: Kinesia One platform is deployed in T-CALM as a digital marker of tremor severity. Kinesia One is FDA cleared for monitoring Parkinson's motor symptom severity with only limited data on assessment of tremor in ET patients. The algorithmically derived score was developed primarily in Parkinson's disease algorithms and has limited validation in ET (see, e.g., Hoffman et al., 2011 Conf Proc IEEE Eng Med Biol Soc. 2011:4378-81). The Kinesia One device is placed on the index finger of each ET patient and worn in the clinic after completion of the TETRAS Performance subscale. Four tasks are performed by the patient on the left and right sides to assess resting, postural, kinetic and lateral wing beating tremor. The Kinesia One score change in score from baseline to day 28 is evaluated as a secondary efficacy endpoint. The Kinesia One data is also utilized for exploratory analysis of efficacy on the change from baseline to day 15 for accelerometry score and for change from baseline on amplitude measures for days 15 and 28. Consistent finger sensor placement and consistent task execution are critical factors for valid Kinesia One scores.
Both sets of scores were statistically analyzed.

[5] = test system: patients with essential tremor; assay: T-CALM: electrocardiogram, vital signs, clinical laboratory, examinations
Method: Electrocardiogram results were calculated as the average of the triplicate records at each time point. Baseline was defined as the mean of the triplicate values obtained pre-dose at Day 1. If this value was not available, the mean of the triplicate records obtained at screening were used.
Safety procedures involved collection of all TEAEs (treatment-emergent adverse events) coded into the Medical Dictionary for Regulatory Activities (MedDRA) version 20. Adverse events were classified by maximum severity, drug-related adverse events, serious adverse events, and adverse events leading to patient discontinuation.

[6] = test system: patients with essential tremor; assay: T-CALM: QUEST questionnaire, items on anti-tremor medication

Q: Which “dose proportionality of plasma profiles” value [1] does the source give for CC(C)c1ccc(CC(=O)N[C@H](C)c2ccc(OCC(F)(F)F)cn2)cc1 [CX-8998] here?
A: Its value is “dose proportional”.

Q: What about the “PGIC Category 0 No change, patients, number (%)” value ([2]; Day 15) of the same compound?
A: The value was 11 (28%).

Q: And the “PGIC Category 1 Minimally improved, patients, number (%)” value ([2]; Day 15)?
A: Its value is 17 (44%).

Q: And the “PGIC Category 2 Much improved, patients, number (%)” value ([2]; Day 15)?
A: Its value is 8 (21%).

Q: What about the “PGIC Category 3 Very much improved, patients, number (%)” value ([2]; Day 15) of the same compound?
A: Its value is 1 (3%).

Q: What about the “PGIC Category −1 Minimally worse, patients, number (%)” value ([2]; Day 15) of the same compound?
A: Its value is 1 (3%).

Q: And the “PGIC Category −2 Much worse, patients, number (%)” value ([2]; Day 15)?
A: Its value is 1 (3%).

Q: What about the “PGIC Category −3 Very much worse, patients, number (%)” value ([2]; Day 15) of the same compound?
A: Its value is 0.

Q: And the “mean PGIC score vs placebo” value ([2]; Day 15)?
A: Its value is “significantly greater (improved)”.

Q: And the “PGIC Score, subjects 0 - no change, n (%)” value ([2]; Day 15, N = 39)?
A: Its value is 11 (28%).

Q: What about the “PGIC Score, subjects 1 - minimally improved, n (%)” value ([2]; Day 15, N = 39) of the same compound?
A: Its value is 17 (44%).

Q: What about the “PGIC Score, subjects 2 - much improved, n (%)” value ([2]; Day 15, N = 39) of the same compound?
A: The value was 8 (21%).

Q: And the “PGIC Score, subjects 3 - very much improved, n (%)” value ([2]; Day 15, N = 39)?
A: Its value is 1 (3%).

Q: What about the “PGIC Score, subjects −1 - minimally worse, n (%)” value ([2]; Day 15, N = 39) of the same compound?
A: Its value is 1 (3%).

Q: And the “PGIC Score, subjects −2 - much worse, n (%)” value ([2]; Day 15, N = 39)?
A: Its value is 1 (3%).

Q: And the “PGIC Score, subjects −3 - very much worse, n (%)” value ([2]; Day 15, N = 39)?
A: Its value is 0.

Q: What about the “PGIC score (rescaled −3 to 3), LS mean (SE)” value ([2]; Day 15) of the same compound?
A: The value was 0.9 (0.17).

Q: What about the “PGIC Category 0 No change, patients, number (%)” value ([2]; Day 28) of the same compound?
A: The value was 14 (36%).

Q: And the “PGIC Category 1 Minimally improved, patients, number (%)” value ([2]; Day 28)?
A: Its value is 10 (26%).

Q: And the “PGIC Category 2 Much improved, patients, number (%)” value ([2]; Day 28)?
A: Its value is 7 (18%).

Q: What about the “PGIC Category 3 Very much improved, patients, number (%)” value ([2]; Day 28) of the same compound?
A: The value was 3 (8%).

Q: What about the “PGIC Category −1 Minimally worse, patients, number (%)” value ([2]; Day 28) of the same compound?
A: The value was 1 (3%).

Q: What about the “PGIC Category −2 Much worse, patients, number (%)” value ([2]; Day 28) of the same compound?
A: The value was 1 (3%).

Q: And the “PGIC Category −3 Very much worse, patients, number (%)” value ([2]; Day 28)?
A: The value was 1 (3%).

Q: And the “mean PGIC score vs placebo” value ([2]; Day 28)?
A: The value was “trended toward significant improvement”.

Q: And the “PGIC Score, subjects 0 - no change, n (%)” value ([2]; Day 28, head N = 39)?
A: Its value is 14 (36%).

Q: And the “PGIC Score, subjects 1 - minimally improved, n (%)” value ([2]; Day 28, head N = 39)?
A: The value was 10 (26%).

Q: And the “PGIC Score, subjects 2 - much improved, n (%)” value ([2]; Day 28, head N = 39)?
A: The value was 7 (18%).

Q: What about the “PGIC Score, subjects 3 - very much improved, n (%)” value ([2]; Day 28, head N = 39) of the same compound?
A: Its value is 3 (8%).

Q: What about the “PGIC Score, subjects −1 - minimally worse, n (%)” value ([2]; Day 28, head N = 39) of the same compound?
A: Its value is 1 (3%).

Q: What about the “PGIC Score, subjects −2 - much worse, n (%)” value ([2]; Day 28, head N = 39) of the same compound?
A: The value was 1 (3%).

Q: And the “PGIC Score, subjects −3 - very much worse, n (%)” value ([2]; Day 28, head N = 39)?
A: The value was 1 (3%).

Q: And the “PGIC score (rescaled −3 to 3), LS mean (SE)” value ([2]; Day 28)?
A: Its value is 0.8 (0.19).

Q: And the “Emax, change from baseline in TETRAS-PS vs Cmin (Hill equation)” value [3]?
A: Its value is “approximately −4.1”.

Q: What about the “Kinesia ONE Total Score change from baseline, LS mean difference from placebo (95% CI)” value ([4]; Day 15, ANCOVA) of the same compound?
A: The value was −0.4 (−1.7, 0.9).

Q: And the “Kinesia ONE score, difference vs placebo” value ([4]; Day 15 and Day 28)?
A: The value was “did not show a significant difference”.

Q: What about the “clinical laboratory parameters vs placebo” value [5] of the same compound?
A: The value was “No clinically meaningful differences”.

Q: What about the “vital signs, ECG, neurological and physical examinations” value [5] of the same compound?
A: Its value is “No clinically significant abnormalities”.

Q: And the “QUEST: Side effect from tremor medication in past month? answer No, patients, number (%)” value ([6]; Day 15)?
A: The value was 25 (64%).

Q: What about the “QUEST: Side effect from tremor medication in past month? answer Yes, patients, number (%)” value ([6]; Day 15) of the same compound?
A: Its value is 14 (36%).

Q: And the “QUEST: Side effect from tremor medication in past month? answer No, patients, number (%)” value ([6]; Day 28)?
A: Its value is 30 (77%).

Q: And the “QUEST: Side effect from tremor medication in past month? answer Yes, patients, number (%)” value ([6]; Day 28)?
A: Its value is 7 (18%).
